In ChEMBL document CHEMBL5150074, “Structure-Based Design of a Dual-Targeted Covalent Inhibitor Against Papain-like and Main Proteases of SARS-CoV-2” (J Med Chem, 2022):

Legend:
[1] = Binding affinity to SARS-CoV-2 MPro C145A mutant assessed as dissociation constant by isothermal titration calorimetry assay; design: species or system Severe acute respiratory syndrome coronavirus 2
[2] = Binding affinity to SARS-CoV-2 PLpro C111A mutant assessed as dissociation constant by isothermal titration calorimetry assay; design: species or system Severe acute respiratory syndrome coronavirus 2

Question: For `Cl.O=C1C=C(Nc2ccccc2N2CCNCC2)C2=NS(=O)(=O)c3cccc1c32`, which Kd [1] is on record?
Answer: The Kd was 1500 nM.

Question: What about the Kd [2] of the same compound?
Answer: Its Kd is 2300 nM.
